Reference: patent US20020173538A1, “Method for sensitizing cancer cells to cancer therapies with a mevalonate-reducing compound” (priority 2000, published 2002)

What was measured:
Hep 3B/T2 cells [1] = experiment: Tumor growth of Hep 3B/T2 cells in nude mice; format: in vivo, BALB/c-nu/nu nude mice
From the text: The descriptive statistics were summarized as mean±STD. For statistical analysis, Student's t-test was used to determine significance of mean differences between groups.

Hep 3B cells = experiment: Cell cycle determination by flow cytometry, Hep 3B; format: cell-based, human; details: cell line not given
Hep 3B/T2 cells [2] = experiment: Tumor growth of Hep 3B/T2 cells in nude mice; format: in vivo, BALB/c-nu/nu nude mice; remark: listed apart in the source
[3] = MTT cell viability assay, Hep G2 cells (serum-free DMEM); details: human, Hep G2 cells, Cell viability
From the text: Human hepatoma cell lines Hep G2 and Hep 3 were chosen as the in vitro models of hepatocytes and hepatoma, respectively.

[4] = Cycle 1 (Day 42), LOV 37.5 mg/kg/day p.o. days 28-34 and 49-55 and/or taxol 120 μg/kg/2 day i.p. day 36, 38, 40, 57, 59, 61
[5] = Cycle 2 (Day 63), LOV 37.5 mg/kg/day p.o. days 28-34 and 49-55 and/or taxol 120 μg/kg/2 day i.p. day 36, 38, 40, 57, 59, 61

CC[C@H](C)C(=O)O[C@H]1C[C@@H](C)C=C2C=C[C@H](C)[C@H](CC[C@@H]3C[C@@H](O)CC(=O)O3)[C@H]21 [Lovastatin, lovastatin]
Tumor size (Hep 3B/T2 cells [1]; [4]): 0.533 cm^3 | Tumor size (Hep 3B/T2 cells [1]; [5]): 1.263 cm^3 | percentage of inhibition of tumor size (Hep 3B/T2 cells [1]; [5]): (−49.5% | Tumor size (Hep 3B/T2 cells [1]; Day 15, LOV 75 mg/kg/day p.o. days 8-14 and/or taxol 120 μg/kg/day i.p. days 15-19, n = 3): 0.050 cm^3 | Tumor size (Hep 3B/T2 cells [1]; Day 20, LOV 75 mg/kg/day p.o. days 8-14 and/or taxol 120 μg/kg/day i.p. days 15-19, n = 3): 0.051 cm^3 | Tumor size (Hep 3B/T2 cells [1]; Day 23, LOV 75 mg/kg/day p.o. days 8-14 and/or taxol 120 μg/kg/day i.p. days 15-19, n = 3): 0.059 cm^3 | Tumor size (1 × w^2 × 0.52 cm^3) Day 28 (Hep 3B/T2 cells [1]; Day 28 after inoculation of 1 × 10^7 Hep 3B/T2 cells in male BALB/c-nu/nu nude mice, p.o. lovastatin 37.5 mg/kg/day (days 28-34, 49-55) and/or i.p. taxol 120 μg/kg/2 day (days 36, 38, 40, 57, 59, 61), mean ± SEM): 0.170 cm^3 | Tumor size (Hep 3B/T2 cells [1]; after two cycles: lovastatin fed 7 days, then paclitaxel injected 3 days (FIG. 38), mean±STD): 1.26±1.82 cm^3 | cell cycle arrest stage (Hep 3B cells): G0/G1 arrest | percentage of inhibition of tumor size (Hep 3B/T2 cells [2]; [4]): (−43.6% | Tumor size (Hep 3B/T2 cells [2]; Day 8, LOV 75 mg/kg/day p.o. days 8-14 and/or taxol 120 μg/kg/day i.p. days 15-19, n = 3): 0.111 cm^3 | Tumor size (Hep 3B/T2 cells [2]; Day 11, LOV 75 mg/kg/day p.o. days 8-14 and/or taxol 120 μg/kg/day i.p. days 15-19, n = 3): 0.048 cm^3 | Tumor size (Hep 3B/T2 cells [2]; Day 17, LOV 75 mg/kg/day p.o. days 8-14 and/or taxol 120 μg/kg/day i.p. days 15-19, n = 3): 0.050 cm^3 | Tumor size (Hep 3B/T2 cells [2]; Day 26, LOV 75 mg/kg/day p.o. days 8-14 and/or taxol 120 μg/kg/day i.p. days 15-19, n = 3): 0.121 cm^3 | Tumor size (Hep 3B/T2 cells [2]; Day 29, LOV 75 mg/kg/day p.o. days 8-14 and/or taxol 120 μg/kg/day i.p. days 15-19, n = 3): 0.154 cm^3 | Tumor size (1 × w^2 × 0.52 cm^3) Day 35 (Hep 3B/T2 cells [2]; Day 35 after inoculation, p.o. lovastatin 37.5 mg/kg/day (days 28-34, 49-55) and/or i.p. taxol 120 μg/kg/2 day (days 36, 38, 40, 57, 59, 61), mean ± SEM): 0.200 cm^3 | Tumor size (1 × w^2 × 0.52 cm^3) Day 38 (Hep 3B/T2 cells [2]; Day 38 after inoculation, p.o. lovastatin 37.5 mg/kg/day (days 28-34, 49-55) and/or i.p. taxol 120 μg/kg/2 day (days 36, 38, 40, 57, 59, 61), mean ± SEM): 0.301 cm^3 | Tumor size (1 × w^2 × 0.52 cm^3) Day 42 (Hep 3B/T2 cells [2]; Day 42 after inoculation, p.o. lovastatin 37.5 mg/kg/day (days 28-34, 49-55) and/or i.p. taxol 120 μg/kg/2 day (days 36, 38, 40, 57, 59, 61), mean ± SEM): 0.533 cm^3 | Tumor size (1 × w^2 × 0.52 cm^3) Day 49 (Hep 3B/T2 cells [2]; Day 49 after inoculation, p.o. lovastatin 37.5 mg/kg/day (days 28-34, 49-55) and/or i.p. taxol 120 μg/kg/2 day (days 36, 38, 40, 57, 59, 61), mean ± SEM): 0.665 cm^3 | Tumor size (1 × w^2 × 0.52 cm^3) Day 56 (Hep 3B/T2 cells [2]; Day 56 after inoculation, p.o. lovastatin 37.5 mg/kg/day (days 28-34, 49-55) and/or i.p. taxol 120 μg/kg/2 day (days 36, 38, 40, 57, 59, 61), mean ± SEM): 0.995 cm^3 | Tumor size (1 × w^2 × 0.52 cm^3) Day 63 (Hep 3B/T2 cells [2]; Day 63 after inoculation, p.o. lovastatin 37.5 mg/kg/day (days 28-34, 49-55) and/or i.p. taxol 120 μg/kg/2 day (days 36, 38, 40, 57, 59, 61), mean ± SEM): 1.263 cm^3 | Tumor size (Hep 3B/T2 cells [2]; end of one cycle of treatment, n=6 (FIG. 41)): 2.24±2.38 cm^3 | viability at 48 h, 1 μM ([3]; LOV 1 μM, 48 hr): 91.8 ± 2.1% | viability at 72 h, 1 μM ([3]; LOV 1 μM, 72 hr): 88.7 ± 1.3% | viability at 48 h, 2 μM ([3]; LOV 2 μM, 48 hr): 90.7 ± 1.5% | viability at 72 h, 2 μM ([3]; LOV 2 μM, 72 hr): 86.2 ± 1.9% | viability at 48 h, 5 μM ([3]; LOV 5 μM, 48 hr): 87.2 ± 3.1% | viability at 48 h, 5 μM ([3]; LOV 5 μM, 48 hr, Table 4): 87.2 ± 3.1% | viability at 72 h, 5 μM ([3]; LOV 5 μM, 72 hr): 80.9 ± 4.4% | viability at 72 h, 5 μM ([3]; LOV 5 μM, 72 hr, Table 4): 80.9 ± 4.4% | viability at 96 h, 5 μM ([3]; LOV 5 μM, 96 hr): 63.2 ± 2% | viability at 120 h, 5 µM ([3]; LOV 5 μM, 120 hr): 55.1 ± 5% | viability at 48 h, 10 μM ([3]; LOV 10 μM, 48 hr): 85.8 ± 2.7% | viability at 48 h, 10 μM ([3]; LOV 10 μM, 48 hr, Table 4): 85.8 ± 2.7% | viability at 72 h, 10 μM ([3]; LOV 10 μM, 72 hr): 78.7 ± 5.3% | viability at 72 h, 10 μM ([3]; LOV 10 μM, 72 hr, Table 4): 78.7 ± 5.3% | viability at 96 h, 10 μM ([3]; LOV 10 μM, 96 hr): 55.1 ± 5% | viability at 120 h, 10 µM ([3]; LOV 10 μM, 120 hr): 33.8 ± 3.8% | viability at 48 h, 20 μM ([3]; LOV 20 μM, 48 hr): 79.9 ± 2.7% | viability at 72 h, 20 μM ([3]; LOV 20 μM, 72 hr): 75.3 ± 4.2% | viability at 72 h, 50 μM ([3]; LOV 50 μM 48 hr, then LOV 50 μM without MVA another 24 hr): 57.8 ± 6.2% | viability at 96 h, 50 µM ([3]; LOV 50 μM 48 hr, then LOV 50 μM without MVA another 48 hr): 12.7 ± 2.6% | viability at 120 h, 50 µM ([3]; LOV 50 μM 48 hr, then LOV 50 μM without MVA another 72 hr): 4 ± 0.6% | viability at 48 h, 50 μM ([3]; LOV 50 μM, 48 hr): 73.1 ± 3.2% | viability at 72 h, 50 μM ([3]; LOV 50 μM, 72 hr): 58.2 ± 4.2% | viability at 72 h, 1 μM ([3]; lovastatin 1 μM, 72 hr): 88.7 ± 1.3% | viability at 72 h, 2 μM ([3]; lovastatin 2 μM, 72 hr): 86.2 ± 1.9% | viability at 48 h, 5 μM ([3]; lovastatin 5 μM 48 hr, then no CAPE 48 hr): 75.2 ± 1.6% | viability at 48 h, 5 μM ([3]; lovastatin 5 μM 48 hr, then no taxol 48 hr): 85.8 ± 4.5% | viability at 72 h, 5 μM ([3]; lovastatin 5 μM 72 hr, then no taxol 48 hr): 81.3 ± 3.8% | viability at 72 h, 5 μM ([3]; lovastatin 5 μM 72 hr, then no taxol 72 hr): 67.2 ± 0.5% | viability at 72 h, 5 μM ([3]; lovastatin 5 μM alone, 72 hr, Table 23): 66.8 ± 1.5% | viability at 72 h, 5 μM ([3]; lovastatin 5 μM, 72 hr): 80.9 ± 4.4% | viability at 48 h, 10 μM ([3]; lovastatin 10 μM 48 hr, then no CAO 48 hr): 75 ± 3.3% | viability at 48 h, 10 μM ([3]; lovastatin 10 μM 48 hr, then no CAPE 48 hr): 66.7 ± 2.4% | viability at 10 µM ([3]; lovastatin 10 μM 48 hr, then no GL-M1 48 hr): 76.9 ± 2.6% | viability at 48 h, 10 μM ([3]; lovastatin 10 μM 48 hr, then no taxol 48 hr): 69.1 ± 3.1% | viability at 72 h, 10 μM ([3]; lovastatin 10 μM 72 hr, then no taxol 48 hr): 54.7 ± 5.9% | viability at 72 hr, 10 μM ([3]; lovastatin 10 μM 72 hr, then no taxol 72 hr): 48 ± 2.9% | viability at 72 h, 10 μM ([3]; lovastatin 10 μM alone, 72 hr, Table 23): 57.8 ± 11.2% | viability at 96 h, 10 μM ([3]; lovastatin 10 μM alone, 96 hr, Table 10): 51.9 ± 4.4% | viability at 96 h, 10 μM ([3]; lovastatin 10 μM alone, 96 hr, Table 21): 52.4 ± 5.5%
